In patent publication US7868135B2, “Compositions of lipopeptide antibiotic derivatives and methods of use thereof” (priority 2003, dated 2011):
Starred links: 1 amine or outer side, 2 acyl side, 3 side chain; linkers in the order of their positions; H or OH if unused. Positions of bridges follow the written chain, without caps; N, C: chain ends. Non-standard residues stand in square brackets, D forms with d. Residues, ends and D or L forms follow the SMILES beside them. ξ: configuration not given here. *: point of attachment. X28 = CCCCCCCC(=O)Nc1cc(NC(=O)CCCCCCC)cc(C(=O)*)c1; ξAbu(βξ-NH2) = CC(N[*:3])C(N[*:1])C(=O)[*:2]; Phac(3-amino) = O=C(Cc1cccc(N[*:1])c1)[*:2]; ξAsp(βξ-Me) = CC(C(=O)O)C(N)C(=O)O; Tridecanoyl = CCCCCCCCCCCCC(=O)*; X1 = O=C(Cc1ccc(N[*:1])cc1)[*:2]; Myristoyl = CCCCCCCCCCCCCC(=O)*; ξAbu(3ξ-NH2) = CC(N)C(N)C(=O)O; Lauroyl = CCCCCCCCCCCC(=O)*; 3Abz = Nc1cccc(C(=O)O)c1; Pip = O=C(O)[CH]1CCCCN1

These compounds were tested on Staphylococcus aureus (MSSA). Details: 24 h.
How it was run: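 Broth microdilution MIC per NCCLS M7-A6 with doubling serial dilutions, in cation-adjusted Mueller-Hinton broth supplemented with 0.625 mM calcium.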

Row | SMILES | MIC
1 | CCCCCCCCCCCC(=O)Nc1cccc(C(=O)NC(CC(=O)O)C(=O)NC2C(=O)N3CCCCC3C(=O)NC(C(C)C(=O)O)C(=O)NC(CC(=O)O)C(=O)NCC(=O)NC(CC(=O)O)C(=O)NCC(=O)NC(C(C)N)C(=O)NC(C(C)C)C(=O)N3CCCC3C(=O)NC2C)c1 (stereo not drawn) [Compound 296, C12-(M-Aminobenzoyl)-Amphomycin] ({Lauroyl-3Abz}-D[ξAbu(βξ-NH2)][Pip][ξAsp(βξ-Me)]DGDG[ξAbu(3ξ-NH2)]VP; lactam 2-C; configuration not given here) | 0.25 µg/mL
2 | CCCCCCCCCCCCC(=O)Nc1ccc(CC(=O)NC(CC(=O)O)C(=O)NC2C(=O)N3CCCCC3C(=O)NC(C(C)C(=O)O)C(=O)NC(CC(=O)O)C(=O)NCC(=O)NC(CC(=O)O)C(=O)NCC(=O)NC(C(C)N)C(=O)NC(C(C)C)C(=O)N3CCCC3C(=O)NC2C)cc1 (stereo not drawn) [Compound 300, C13-(p-Apa)-Amphomycin] (Tridecanoyl-[X1]D[ξAbu(βξ-NH2)][Pip][ξAsp(βξ-Me)]DGDG[ξAbu(3ξ-NH2)]VP; lactam 3-C; configuration not given here) | 0.225 µg/mL
3 | CCCCCCCCCCCCCC(=O)Nc1cccc(CC(=O)NC(CC(=O)O)C(=O)NC2C(=O)N3CCCCC3C(=O)NC(C(C)C(=O)O)C(=O)NC(CC(=O)O)C(=O)NCC(=O)NC(CC(=O)O)C(=O)NCC(=O)NC(C(C)N)C(=O)NC(C(C)C)C(=O)N3CCCC3C(=O)NC2C)c1 (stereo not drawn) [Compound 303, C14-(M-Apa)-Amphomycin] (Myristoyl-[Phac(3-amino)]D[ξAbu(βξ-NH2)][Pip][ξAsp(βξ-Me)]DGDG[ξAbu(3ξ-NH2)]VP; lactam 3-C; configuration not given here) | 0.5 µg/mL
4 | CCCCCCCCCCCNC(=O)NCCCC(=O)NC(CC(=O)O)C(=O)NC1C(=O)N2CCCCC2C(=O)NC(C(C)C(=O)O)C(=O)NC(CC(=O)O)C(=O)NCC(=O)NC(CC(=O)O)C(=O)NCC(=O)NC(C(C)N)C(=O)NC(C(C)C)C(=O)N2CCCC2C(=O)NC1C (stereo not shown) [Compound 304, CH3—(CH2)10—NH—C(═O)-GABA-Amphomycin] | 4 µg/mL
5 | CCCCCCCC(=O)Nc1cc(NC(=O)CCCCCCC)cc(C(=O)NC(CC(=O)O)C(=O)NC2C(=O)N3CCCCC3C(=O)NC(C(C)C(=O)O)C(=O)NC(CC(=O)O)C(=O)NCC(=O)NC(CC(=O)O)C(=O)NCC(=O)NC(C(C)N)C(=O)NC(C(C)C)C(=O)N3CCCC3C(=O)NC2C)c1 (stereo not drawn) [Compound 305, N,N′-di-C8-(M,M-Diaminobenzoyl)-Amphomycin] (X28-D[ξAbu(βξ-NH2)][Pip][ξAsp(βξ-Me)]DGDG[ξAbu(3ξ-NH2)]VP; lactam 2-C; configuration not given here) | 1 µg/mL

The remaining lines, values ahead:

Row | MIC | SMILES
6 | 0.25 µg/mL | CCCCCCCCCCCCC(=O)Nc1cccc(C(=O)NC(CC(=O)O)C(=O)NC2C(=O)N3CCCCC3C(=O)NC(C(C)C(=O)O)C(=O)NC(CC(=O)O)C(=O)NCC(=O)NC(CC(=O)O)C(=O)NCC(=O)NC(C(C)N)C(=O)NC(C(C)C)C(=O)N3CCCC3C(=O)NC2C)c1 (stereo not drawn) [Compound 297, C13-(M-Aminobenzoyl)-Amphomycin] ({Tridecanoyl-3Abz}-D[ξAbu(βξ-NH2)][Pip][ξAsp(βξ-Me)]DGDG[ξAbu(3ξ-NH2)]VP; lactam 2-C; configuration not given here)
7 | 2 µg/mL | CCCCCCCCCCCCCC(=O)Nc1ccc(CC(=O)NC(CC(=O)O)C(=O)NC2C(=O)N3CCCCC3C(=O)NC(C(C)C(=O)O)C(=O)NC(CC(=O)O)C(=O)NCC(=O)NC(CC(=O)O)C(=O)NCC(=O)NC(C(C)N)C(=O)NC(C(C)C)C(=O)N3CCCC3C(=O)NC2C)cc1 (stereo not drawn) [Compound 301, C14-(p-Apa)-Amphomycin] (Myristoyl-[X1]D[ξAbu(βξ-NH2)][Pip][ξAsp(βξ-Me)]DGDG[ξAbu(3ξ-NH2)]VP; lactam 3-C; configuration not given here)
